How the values were obtained:
[1] = tested on: E. coli ATCC 25922 and E19; experiment: Intracellular ATP determination; assay type: cell-based, Escherichia coli; conditions: MR-22 1, 2, 4 × MIC, 1 h, 37°C; compared to the control group; dose-dependent
Procedure: The MR-22 solution was added to bacterial suspensions (1.0 × 10^6 CFU/mL) at different final concentrations (1, 2, 4 × MIC) incubated at 37°C for 1 h. The mixture was subsequently centrifuged and the resulting supernatants were collected. Finally, the intracellular ATP concentration was determined using an ATP Assay Kit (Beyotime, China) according to the manufacturer’s instruction.

[2] = tested on: E. coli ATCC 25922; experiment: Time-kill assay; assay type: cell-based, Escherichia coli; conditions: 2 × MIC ('1 × MIC and 2 × MIC, respectively' for E19 and ATCC 25922), 1.0×10^6 CFU/mL, 37°C, colony counts
Procedure: (§1) The time-kill kinetics of MR-22 on E. coli were determined following the protocol described by ([Lu et al., 2022]). The bacterial suspensions (1.0×10^6 CFU/mL) were mixed with different concentrations of MR-22, then cultured at 37°C. The final concentrations of MR-22 ranged 1, 2, 4 ×MIC. At 0, 1, 2, 4, 6, 12, and 24 h, 10 μL aliquot samples were diluted in 90 μL PBS and 5 μL aliquot of the dilutions was spread onto LB agar plates. After incubation at 37°C for 24 h, the colony counts were determined and the time-killing curve was plotted.

[3] = tested on: E. coli E19; experiment: Time-kill assay; assay type: cell-based, Escherichia coli; conditions: 1 × MIC ('1 × MIC and 2 × MIC, respectively' for E19 and ATCC 25922), 1.0×10^6 CFU/mL, 37°C, colony counts
Procedure: as §1

[4] = tested on: E. coli clinical strain E07; experiment: microbe, parasite or virus in culture; conditions: clinical strain E07, 18 h
Procedure: (§2) The clinical strains used in this study were obtained from a tertiary healthcare facility located in Guiyang, a city situated within the Guizhou Province of China. The E. coli ATCC 25922 was obtained from the Key and Characteristic Laboratory of Modern Pathogen Biology at Guizhou Medical University in Guiyang, China. All strains were stored at –80°C in LB medium and routinely cultured at LB medium at 37°C.
(§3) The MIC were determined by a micro dilution method in Mueller-Hinton broth (MHB) ([Cuenca-Estrella et al., 2010]). The final concentration of bacterial suspension in MHB were 1.0×10^6 CFU/mL. The final concentration of MR-22 ranged 1 ~ 256 μg/mL in 96 wells plate broth at 37°C for 16~18 h. Imipenem was employed as positive control, bacterial grown without treatment as negative control and MHB as blank control. MIC determination was performed by reading the OD600 nm. Take 100 μL samples in holes that have never seen bacterial growth and place them on the LB agar board. The concentration of MR-22 with no bacterial growth was defined as the MBC.

[5] = tested on: E. coli clinical strain E11; experiment: microbe, parasite or virus in culture; conditions: clinical strain E11, 18 h
Procedure: as §2, §3

[6] = tested on: E. coli clinical strain E09; experiment: microbe, parasite or virus in culture; conditions: clinical strain E09, 18 h
Procedure: as §2, §3

[7] = tested on: E. coli clinical strain E08; experiment: microbe, parasite or virus in culture; conditions: clinical strain E08, 18 h
Procedure: as §2, §3

[8] = tested on: E. coli clinical strain E18; experiment: microbe, parasite or virus in culture; conditions: clinical strain E18, 18 h
Procedure: as §2, §3

[9] = tested on: E. coli clinical strain E02; experiment: microbe, parasite or virus in culture; conditions: clinical strain E02, 18 h
Procedure: as §2, §3

[10] = tested on: E. coli clinical strain E06; experiment: microbe, parasite or virus in culture; conditions: clinical strain E06, 18 h
Procedure: as §2, §3

[11] = tested on: E. coli clinical strain E17; experiment: microbe, parasite or virus in culture; conditions: clinical strain E17, 18 h
Procedure: as §2, §3

[12] = tested on: E. coli clinical strain E04; experiment: microbe, parasite or virus in culture; conditions: clinical strain E04, 18 h
Procedure: as §2, §3

[13] = tested on: E. coli clinical strain E10; experiment: microbe, parasite or virus in culture; conditions: clinical strain E10, 18 h
Procedure: as §2, §3

[14] = tested on: E. coli clinical strain E21; experiment: microbe, parasite or virus in culture; conditions: clinical strain E21, 18 h
Procedure: as §2, §3

[15] = tested on: E. coli clinical strain E20; experiment: microbe, parasite or virus in culture; conditions: clinical strain E20, 18 h
Procedure: as §2, §3

[16] = tested on: E. coli clinical strain E01; experiment: microbe, parasite or virus in culture; conditions: clinical strain E01, 18 h
Procedure: as §2, §3

[17] = tested on: E. coli clinical strain E14; experiment: microbe, parasite or virus in culture; conditions: clinical strain E14, 18 h
Procedure: as §2, §3

[18] = tested on: E. coli clinical strain E13; experiment: microbe, parasite or virus in culture; conditions: clinical strain E13, 18 h
Procedure: as §2, §3

[19] = tested on: E. coli ATCC 25922; assay type: cell-based, Escherichia coli
Procedure: In order to study the activity of MR-22 in high-salt concentration, mice serum, different temperatures or trypsin, MIC once again conducted tests as described above.
[…] The resulting solutions were subjected to MIC testing to evaluate any alterations in the antimicrobial activity of MR-22.
To assess the thermal stability of MR-22, it was subjected to various temperatures (40°C, 60°C, 80°C, and 100°C) for 30 min. Then, reducing to room temperature, and the MIC was subsequently determined.
MR-22 was mixed with a solution containing 1 μg/ml of trypsin and incubated at 37°C for 2 to 12h. Then, trypsin inactivation was carried out at 60°C for 30 min. The antimicrobial activity of the samples was tested to assess the activity of MR-22 and its analogs after the treatment by trypsin. The untreated MR-22 served as the control group for comparative analysis.

H-MAKRRKKAKKKAKKAKKRRRRR-NH2 [MR-22]
16 µg/mL: MBC [4] | MIC [4] | MBC [5] | MIC [5] | MBC [6] | MIC [6] | MBC [9] | MIC [9] | MBC [13] | MIC [13] | MBC [16] | MIC [16] | MBC [17] | MIC [17] | MBC [18] | MIC [18] | MIC, 10% FBS ([19]; ATCC 25922, 16 h) | MIC, 40°C 30 min ([19]; ATCC 25922, 16 h) | MIC, 60°C 30 min ([19]; ATCC 25922, 16 h) | MIC, 80°C 30 min ([19]; ATCC 25922, 16 h) | MIC, 100°C 30 min ([19]; ATCC 25922, 16 h) | MIC, Control ([19]; ATCC 25922, 16 h)
256 µg/mL: MIC, 150 μM Na^+ ([19]; ATCC 25922, 16 h)
8 µg/mL: MBC [7] | MIC [7] | MBC [8] | MIC [8] | MBC [10] | MIC [10] | MBC [12] | MIC [12] | MBC [14] | MIC [14] | MBC [15] | MIC [15]
>256 µg/mL: MIC, 1 μg/mL Trypsin ([19]; E. coli ATCC 25922, MR-22 incubated with 1 μg/ml trypsin at 37°C (2 to 12 h), trypsin inactivated 60°C 30 min)
significantly reduced: intracellular ATP concentration [1]
32 µg/mL: MBC [11] | MIC [11]
≤ 2 h: time to eliminate the bacteria (time-kill) [2] | time to eliminate the bacteria (time-kill) [3]
64 µg/mL: MIC, 10% Serum ([19]; ATCC 25922, 16 h)
